Assay [1] in a line: antiviral activity against West Nile virus in cells, dose response, cell-based, EC_1, probe candidates (AID 588371). The following applies: West Nile virus-infected cells, antiviral inhibition.
The test system of assay [2] is West Nile virus-infected cells, antiviral inhibition. The description is as above.

The text below walks through data of PubChem BioAssay AID588371 (Southern Research Specialized Biocontainment Screening …, 2011).

“And” between values parts separate entries of the source, which are not always exact repeats. Equal values may be shown once. Records with an inconclusive call do not appear. The source made the active and inactive calls. No rule for the calls is given here.

As a reminder, the inhibition is the relative decrease from the control value, in per cent. With `O=C(CCCCSc1nc2ccccc2c(=O)n1-c1ccccc1)Nc1ccc2c(c1)CCC2`, in assay [1] (at 100 µM (top of the series)), the inhibition is 18.5% (inactive).
Same read-out and setting: next, `Cc1nc2cc(NC(=O)CSc3nc4ccccc4c(=O)n3-c3ccccc3)ccc2s1`: 2.35% (inactive); `O=C(CSc1nc2ccccc2c(=O)n1-c1ccc(Cl)c(Cl)c1)Nc1ccc2c(c1)OCO2`: -2.42% (inactive); `O=C(CSc1nc2ccccc2c(=O)n1-c1ccccc1)NC1Cc2ccccc2C1`: -2% (inactive).
The same measure, in the same setting: next, `O=C(CSc1nc2ccccc2c(=O)n1-c1ccc(Cl)c(Cl)c1)Nc1cccc2ccccc12`: -1.85% (inactive); `O=C(CCCSc1nc2cccc(F)c2c(=O)n1-c1ccccc1)Nc1ccc2c(c1)CCC2`: -2.02% (inactive).
`O=C(CCCSc1nc2cccc(F)c2c(=O)n1-c1ccc(F)c(Br)c1)Nc1ccc2c(c1)CCC2`: the inhibition in assay [1] (at 100 µM (top of the series)) was -2.67% (inactive).
Take `O=C(CCCSc1nc2cccc(F)c2c(=O)n1-c1cc(F)c(F)c(F)c1)Nc1ccc2c(c1)CCC2`: in assay [1] (at 100 µM (top of the series)), the inhibition was -2.94% (inactive).
The same measure, in the same setting: in the case of `O=C(CCCCSc1nc2cccc(F)c2c(=O)n1-c1ccc(F)c(Br)c1)Nc1ccc2c(c1)CCC2` it was -1.81% (inactive); in that of `O=C(CSc1nc2cccc(F)c2c(=O)n1-c1ccccc1)Nc1ccc2c(c1)OCO2`, 0.09% (inactive).
Same read-out and setting: in the case of `O=C(CCCCSc1nc2cccc(F)c2c(=O)n1-c1ccc(Cl)c(Cl)c1)Nc1ccc2c(c1)CCC2` it was -1.71% (inactive); in that of `O=C(CSc1nc2ccccc2c(=O)n1-c1ccccc1)Nc1cccc2ccccc12`, -1.05% (inactive); in that of `O=C(CCCSc1nc2cccc(F)c2c(=O)n1-c1ccc(F)c(F)c1)Nc1ccc2c(c1)CCC2`, -2.48% (inactive).
Broadly, the IC50 is the midpoint of a concentration-inhibition curve. In the case of `O=C(CSc1nc2ccccc2c(=O)n1-c1cc(Cl)cc(Cl)c1)Nc1ccc2c(c1)CCC2`, the IC50 in assay [2] was 2.73 µM.
As to `O=C(CSc1nc2cccc(F)c2c(=O)n1-c1ccccc1)NC1Cc2ccccc2C1`, the inhibition in assay [1] (at 100 µM (top of the series)) was 0.89% (inactive).
Regarding `O=C(CCCCSc1nc2cccc(F)c2c(=O)n1-c1ccccc1)Nc1ccc2c(c1)CCC2`, the inhibition in assay [1] (at 100 µM (top of the series)) was -1.05% (inactive).
Same read-out and setting: next, `O=C(CCCCSc1nc2cccc(F)c2c(=O)n1-c1cc(F)c(F)c(F)c1)Nc1ccc2c(c1)CCC2`: -1.19% (inactive); `O=C(CSc1nc2ccccc2c(=O)n1-c1ccccc1)Nc1nc2cc(Cl)ccc2o1`: 8.31% (inactive); `O=C(CCCCSc1nc2cccc(F)c2c(=O)n1-c1ccc(F)c(F)c1)Nc1ccc2c(c1)CCC2`: 0.09% (inactive).
As for `O=C(CCCCSc1nc2cccc(F)c2c(=O)n1-c1ccc(Cl)c(F)c1)Nc1ccc2c(c1)CCC2`, in assay [1] (at 100 µM (top of the series)), the inhibition is -0.34% (inactive).
In the case of `O=C(CSc1nc2ccccc2c(=O)n1-c1ccc(Cl)c(Cl)c1)Nc1ccc2c(c1)CCC2`, in assay [2], the IC50 is 8.09 µM.
In the case of `O=C(CSc1nc2ccccc2c(=O)n1-c1ccccc1)Nc1cccc2c1CCC2`, the inhibition in assay [1] (at 100 µM (top of the series)) is 1.83% (inactive).
The same measure, in the same setting: next, `O=C(CCCSc1nc2cccc(F)c2c(=O)n1-c1ccc(Cl)c(Cl)c1)Nc1ccc2c(c1)CCC2`: -2.38% (inactive); `O=C(CCSc1nc2cccc(F)c2c(=O)n1-c1ccc(Cl)c(Cl)c1)Nc1ccc2c(c1)CCC2`: -1.05% (inactive).
On to `O=C(CSc1nc2ccccc2c(=O)n1-c1ccc(Cl)c(Cl)c1)Nc1cccc2c1CCC2`, for which the inhibition in assay [1] (at 50 µM (top of the series)) was -1.69% (inactive).
Take `O=C(CSc1nc2ccccc2c(=O)n1-c1ccccc1)NC1CCc2ccccc21` (stereo not given): in assay [1] (at 100 µM (top of the series)), the inhibition was -0.61% (inactive).
On to `O=C(CSc1nc2cccc(F)c2c(=O)n1-c1ccc(Cl)c(Cl)c1)Nc1ccc2c(c1)CCC2`, for which the inhibition in assay [1] (at 100 µM (top of the series)) was -2.48% (inactive).
As for `O=C(CSc1nc2cccc(F)c2c(=O)n1-c1ccccc1)Nc1ccc2ncsc2c1`, the inhibition in assay [1] (at 50 µM (top of the series)) is 1.43% (inactive).
Same read-out and setting: next, `O=C(CCSc1nc2cccc(F)c2c(=O)n1-c1cc(F)c(F)c(F)c1)Nc1ccc2c(c1)CCC2`: 9.08% (inactive).
With `O=C(CSc1nc2ccccc2c(=O)n1-c1ccccc1)Nc1ncc([N+](=O)[O-])s1`, the inhibition in assay [1] (at 100 µM (top of the series)) was -1.85% (inactive).
Still for that read-out and setting: next, `Cc1csc(NC(=O)CSc2nc3ccccc3c(=O)n2-c2ccccc2)n1`: -3.31% (inactive).
On to `O=C(CSc1nc2ccccc2c(=O)n1-c1cc(Cl)cc(Cl)c1)Nc1nccs1`, for which, in assay [1] (at 50 µM (top of the series)), the inhibition is 18.5% (inactive).
Turning to `O=C(CSc1nc2ccccc2c(=O)n1-c1ccccc1)Nc1ccc2c(c1)CCC2`, the IC50 in assay [2] is 9.17 µM and 11.7 µM.
Take `O=C(CSc1nc2ccccc2c(=O)n1-c1ccccc1)Nc1nc2ccc([N+](=O)[O-])cc2s1`: the inhibition in assay [1] (at 100 µM (top of the series)) was -2.6% (inactive).
Same read-out and setting: in the case of `O=C(CCCSc1nc2ccccc2c(=O)n1-c1ccccc1)Nc1ccc2c(c1)CCC2` it was -0.62% (inactive); in that of `O=C(CCSc1nc2ccccc2c(=O)n1-c1ccc(Cl)c(Cl)c1)Nc1ccc2c(c1)CCC2`, -2.58% (inactive).
The same measure, in the same setting: next, `O=C(CSc1nc2ccccc2c(=O)n1-c1cc(Cl)cc(Cl)c1)NC1Cc2ccccc2C1`: -3.26% (inactive); `O=C(CSc1nc2ccccc2c(=O)n1-c1ccccc1)Nc1nccs1`: -0.12% (inactive).
With `O=C(CSc1nc2ccccc2c(=O)n1-c1ccccc1)Nc1ccc2ncsc2c1`, the inhibition in assay [1] (at 100 µM (top of the series)) was -0.65% (inactive).
Consider `O=C(CSc1nc2cccc(F)c2c(=O)n1-c1cc(F)c(F)c(F)c1)Nc1ccc2c(c1)CCC2`, for which the IC50 in assay [2] is 16.5 µM.
Turning to `O=C(CCSc1nc2cccc(F)c2c(=O)n1-c1ccc(F)c(F)c1)Nc1ccc2c(c1)CCC2`, the inhibition in assay [1] (at 100 µM (top of the series)) was -1.56% (inactive).
As to `O=C(CSc1nc2ccccc2c(=O)n1-c1ccccc1)Nc1nc(-c2ccccc2)cs1`, in assay [1] (at 50 µM (top of the series)), the inhibition was 0.7% (inactive).
`O=C(CSc1nc2ccccc2c(=O)n1-c1ccc(F)c(Cl)c1)Nc1cccc2ccccc12`: the inhibition in assay [1] (at 100 µM (top of the series)) was -1.32% (inactive).
With `O=C(CSc1nc2ccccc2c(=O)n1-c1cc(Cl)cc(Cl)c1)Nc1cccc2ccccc12`, the inhibition in assay [1] (at 100 µM (top of the series)) was -0.85% (inactive).
On to `O=C(CSc1nc2ccccc2c(=O)n1-c1ccccc1)Nc1ccc2c(c1)OCO2`, for which the inhibition in assay [1] (at 100 µM (top of the series)) was 2.32% (inactive).
Still for that read-out and setting: in the case of `O=C(CCCSc1nc2cccc(F)c2c(=O)n1-c1ccc(Cl)c(F)c1)Nc1ccc2c(c1)CCC2` it was -2.66% (inactive).
Consider `O=C(CSc1nc2cccc(F)c2c(=O)n1-c1ccc(F)c(F)c1)Nc1ccc2c(c1)CCC2`, for which, in assay [1] (at 50 µM (top of the series)), the inhibition is 1.72% (inactive).
As to `O=C(CSc1nc2cccc(F)c2c(=O)n1-c1ccccc1)Nc1cccc2ccccc12`, in assay [1] (at 100 µM (top of the series)), the inhibition is -1.94% (inactive).
Regarding `Cc1cnc(NC(=O)CSc2nc3ccccc3c(=O)n2-c2ccccc2)s1`, the inhibition in assay [1] (at 50 µM (top of the series)) is -1.61% (inactive).
For `O=C(CSc1nc2cccc(F)c2c(=O)n1-c1ccc(Cl)c(F)c1)Nc1ccc2c(c1)CCC2`, the inhibition in assay [1] (at 50 µM (top of the series)) is -1.63% (inactive).
For the molecule `O=C(CSc1nc2cccc(F)c2c(=O)n1-c1ccccc1)Nc1cccc2c1CCC2`, the inhibition in assay [1] (at 100 µM (top of the series)) is -1.2% (inactive).
Still for that read-out and setting: in the case of `O=C(CSc1nc2ccccc2c(=O)n1-c1ccccc1)NC1CCCc2ccccc21` (stereo not given) it was -2% (inactive).
Consider `O=C(CSc1nc2ccccc2c(=O)n1-c1cc(Cl)cc(Cl)c1)NC1CCc2ccccc21` (stereo not given), for which the inhibition in assay [1] (at 50 µM (top of the series)) is 11.3% (inactive).
Consider `O=C(CSc1nc2ccccc2c(=O)n1-c1ccccc1)Nc1cccc(-c2ccccc2)c1`, for which, in assay [1] (at 100 µM (top of the series)), the inhibition was 0.04% (inactive).
`O=C(CCSc1nc2cccc(F)c2c(=O)n1-c1ccc(F)c(Br)c1)Nc1ccc2c(c1)CCC2`: the inhibition in assay [1] (at 100 µM (top of the series)) was -1.52% (inactive).
Turning to `O=C(CSc1nc2ccccc2c(=O)n1-c1ccccc1)N1CCCCCC1`, in assay [1] (at 100 µM (top of the series)), the inhibition was -1.69% (inactive).
As to `O=C(CCSc1nc2cccc(F)c2c(=O)n1-c1ccc(Cl)c(F)c1)Nc1ccc2c(c1)CCC2`, the inhibition in assay [1] (at 100 µM (top of the series)) was 3.09% (inactive).
As to `O=C(CSc1nc2cccc(F)c2c(=O)n1-c1ccccc1)Nc1ccc2c(c1)CCC2`, the inhibition in assay [1] (at 50 µM (top of the series)) was -0.4% (inactive).
As to `O=C(CSc1nc2cccc(F)c2c(=O)n1-c1ccccc1)NC1CCCc2ccccc21` (stereo not given), the inhibition in assay [1] (at 100 µM (top of the series)) is -0.94% (inactive).
In the case of `O=C(CSc1nc2cccc(F)c2c(=O)n1-c1ccc(F)c(Br)c1)Nc1ccc2c(c1)CCC2`, the inhibition in assay [1] (at 100 µM (top of the series)) is -2.48% (inactive).
